Where “and” joins values, the source holds several entries; their conditions need not be identical. Equal values may be shown once.
Key:
hKMO = target: T1, hKMO (Homo sapiens, UniProt O15229); assay: Human KMO enzyme (cell-free) assay, NADPH consumption by absorbance; assay type: biochemical
T1 construct: purchased Origene
Method: (§1) Human KMO was purchased from Origene and used to assay compounds. Full-length Rat-KMO purified for crystallisation was used to assay compounds. Full-length Rat-KMO-expressing membranes were used for mutant assays (Fig. 4b) only. […] Images were taken using Odyssey CLX (LI-COR Biosciences) and quantified using ImageStudio2.0 (LI-COR Biosciences) software.
(§2) Test compounds were dissolved in DMSO and diluted with assay buffer containing 50 mM HEPES, 2 mM MgCl2, 0.5 mM EGTA, 1 mM DTT, 0.05% Tween20 and 0.005% of antiform SI (pH = about 7.9) to prepare a 4% DMSO solution. […] After 5 min of pre-incubation, reactions were started by adding 10 μL of substrate solution containing 2.4 mM kynurenine and 0.6 mM NADPH. Reactions were run for 90 min at 30 °C, then terminated by adding 5 μL of stop buffer (40 mM maleimide, 2 mM WST-9 and 0.1 mM 1-methoky PMS in water). […] Liposomal assays were performed in the same manner except that the composition of the assay buffer was changed (phosphate-buffered saline, 2 mM MgCl2, 1 mM DTT, 0.05% Tween 20).
(§3) Compound assays were analysed and plotted on graphs using Prism (GraphPad Software Inc. San Diego, CA, USA).

[1] = target: T2, HEK293 cells stably expressing human KMO (Homo sapiens, UniProt O15229); assay: Cell-based human KMO inhibition assay (LC/MS of 3-hydroxykynurenine)
T2 construct: expressed in transfected cells
T2 sequence (O15229 whole entry): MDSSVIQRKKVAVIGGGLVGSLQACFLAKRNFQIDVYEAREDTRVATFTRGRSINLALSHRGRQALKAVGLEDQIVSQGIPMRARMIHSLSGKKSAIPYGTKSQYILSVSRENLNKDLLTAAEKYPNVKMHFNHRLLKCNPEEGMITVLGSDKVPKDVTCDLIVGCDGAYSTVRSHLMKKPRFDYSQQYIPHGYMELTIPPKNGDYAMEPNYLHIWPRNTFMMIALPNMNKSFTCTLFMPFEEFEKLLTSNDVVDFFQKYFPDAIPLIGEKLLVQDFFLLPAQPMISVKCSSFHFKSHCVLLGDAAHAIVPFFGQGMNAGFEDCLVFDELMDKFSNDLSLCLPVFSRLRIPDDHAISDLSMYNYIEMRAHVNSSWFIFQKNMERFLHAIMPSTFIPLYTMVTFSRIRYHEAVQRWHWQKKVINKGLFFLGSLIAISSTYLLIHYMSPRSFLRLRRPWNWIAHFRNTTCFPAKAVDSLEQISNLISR
Method: (§4) HEK293 cells stably expressing human or rat KMO were maintained in DMEM containing 10% fetal bovine serum, 50 units/mL penicillin, 50 μg/mL streptomycin and 0.2 mg⁄mL zeocine. […] After 2 overnights, the medium was replaced with 10 μL/well of assay buffer (1 × HBSS containing 20 mM HEPES). Ten microliters per well of the diluted test compounds (final, 0–30 μM, 0.3% DMSO) were added to the respective wells. After ~30 min of pre-incubation at 37 °C, reactions were started by adding 20 μL of substrate solution containing 0.2 mM kynurenine. Reactions were run for 2 h at 37 °C, the assay buffer was discarded and the plate was immediately frozen and stored at −30 °C until LC/MS analysis.
(§5) An 80 µL volume of cold acetonitrile with 2% formic acid was added to the cell pellet in a 384-well plate and centrifuged at 3000 rpm for 10 min at 4 °C. A 40 µL volume of the supernatant was transferred to a new 384-well plate and evaporated to dryness under nitrogen gas at 45 °C. The residue was reconstituted in 100 µL of acetonitrile/water (10:90, v/v) with 0.1% formic acid, and 1 µL was injected into the LC-MS/MS system.
(§6) LC/MS/MS was performed on a Shimadzu UFLC Nexera X2 (Shimadzu Corporation, Japan) and an QTRAP® 5500 LC-MS/MS System (SCIEX, Framingham, USA). Chromatographic separation was performed using an Allure PFP Propyl analytical column (5 µm, 2.1 × 100 mm) maintained at 50 °C. The autosampler temperature was set at 15 °C. The mobile phase consisted of formic acid/water/acetonitrile/methanol (0.5/500/250/250, v/v/v/v) and the flow rate was set at 0.3 mL/min. 3-hydroxykynurenine was eluted from the LC column at a retention time of 1.2 min. The MS system was operated using electrospray ionization (ESI) in positive mode. The optimum conditions were curtain gas, 20 psi; ion spray voltage, 5500 V; heated nebulizer temperature (TEM), 700 °C; nebulizing gas (GS1), 70 psi; and heater gas (GS2), 70 psi. […] Analyst® software (SCIEX, Framingham, USA) was used for system control and MultiQuant™ Software (SCIEX, Framingham, USA) was used for data analysis.
as §3

[2] = target: T3, HEK293 cells stably expressing rat KMO (Rattus norvegicus, UniProt O88867); assay: Cell-based rat KMO inhibition assay (LC/MS of 3-hydroxykynurenine)
T3 construct: expressed in transfected cells
T3 sequence (O88867 whole entry): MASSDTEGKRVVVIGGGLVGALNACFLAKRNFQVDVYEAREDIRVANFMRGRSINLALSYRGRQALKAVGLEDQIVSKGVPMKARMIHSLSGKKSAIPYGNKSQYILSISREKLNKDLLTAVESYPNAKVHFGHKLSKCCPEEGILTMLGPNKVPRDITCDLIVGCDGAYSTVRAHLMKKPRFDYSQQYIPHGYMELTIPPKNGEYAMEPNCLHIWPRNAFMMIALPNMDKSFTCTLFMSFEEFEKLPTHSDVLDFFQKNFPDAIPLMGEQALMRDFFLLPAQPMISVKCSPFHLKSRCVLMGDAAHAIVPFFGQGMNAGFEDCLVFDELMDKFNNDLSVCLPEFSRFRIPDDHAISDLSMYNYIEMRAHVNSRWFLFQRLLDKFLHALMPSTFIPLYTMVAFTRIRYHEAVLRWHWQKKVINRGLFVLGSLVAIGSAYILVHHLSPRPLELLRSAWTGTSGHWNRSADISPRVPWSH
Method: as §4, §5, §6, §3

Rat KMO = target: T4, Rat KMO (Rattus norvegicus, UniProt O88867); assay: Rat KMO enzyme (cell-free) assay, NADPH consumption by absorbance; assay type: biochemical
T4 construct: The GST-tagged full-length KMO (1-478) baculovirus vector contained a thrombin cleavage site; GST (thrombin cleavage site between GST and KMO) (N, cleaved yes); made in house; host or cells: Spodoptera frugiperda (Sf9), baculovirus
T4 sequence (O88867 whole entry): as above
Method: as §1, §2, §3

T1 sequence (O15229 whole entry): as the sequence (O15229 whole entry) above

- IC50 (hKMO; cell-free enzyme assay, high kynurenine, read-out: Human KMO IC50): 0.16 µM
- inhibition rate, Hs-KMO cell-free assay (Figure 1A source data) (hKMO; conc 0.03 μM, duplicates): 13.527%
- inhibition at 0.03 µM (hKMO; conc 0.03 μM, duplicates, read-out: inhibition rate, Hs-KMO cell-free assay (Figure 1A source data)): 15.1%
- inhibition rate, Hs-KMO cell-free assay (Figure 1A source data) (hKMO; conc 0.1 μM, duplicates): 37.639%
- inhibition at 0.1 µM (hKMO; conc 0.1 μM, duplicates, read-out: inhibition rate, Hs-KMO cell-free assay (Figure 1A source data)): 41.4%
- inhibition rate, Hs-KMO cell-free assay (Figure 1A source data) (hKMO; conc 0.3 μM, duplicates): 65.813%
- inhibition at 0.3 µM (hKMO; conc 0.3 μM, duplicates, read-out: inhibition rate, Hs-KMO cell-free assay (Figure 1A source data)): 66.6%
- inhibition rate, Hs-KMO cell-free assay (Figure 1A source data) (hKMO; conc 1 μM, duplicates): 77.715%
- inhibition at 1 µM (hKMO; conc 1 μM, duplicates, read-out: inhibition rate, Hs-KMO cell-free assay (Figure 1A source data)): 82.9%
- inhibition rate, Hs-KMO cell-free assay (Figure 1A source data) (hKMO; conc 3 μM, duplicates): 95.862%
- inhibition at 3 µM (hKMO; conc 3 μM, duplicates, read-out: inhibition rate, Hs-KMO cell-free assay (Figure 1A source data)): 99.1%
- inhibition rate, Hs-KMO cell-free assay (Figure 1A source data) (hKMO; conc 10 μM, duplicates): 92.894%
- inhibition at 10 µM (hKMO; conc 10 μM, duplicates, read-out: inhibition rate, Hs-KMO cell-free assay (Figure 1A source data)): 97.2%
- inhibition rate, Hs-KMO cell-free assay (Figure 1A source data) (hKMO; conc 30 μM, duplicates): 103.928%
- inhibition at 30 µM (hKMO; conc 30 μM, duplicates, read-out: inhibition rate, Hs-KMO cell-free assay (Figure 1A source data)): 104%
- inhibition rate, Hs-KMO cell-free assay (Figure 1A source data) (hKMO; conc 100 μM, duplicates): 96.422%
- inhibition at 100 µM (hKMO; conc 100 μM, duplicates, read-out: inhibition rate, Hs-KMO cell-free assay (Figure 1A source data)): 100%
- inhibition at 0.1 µM ([1]; HEK293, conc 0.1 μM, duplicates, read-out: inhibition rate, Hs-KMO cellular assay (Figure 1C source data)): 17%
- inhibition at 0.3 µM ([1]; HEK293, conc 0.3 μM, duplicates, read-out: inhibition rate, Hs-KMO cellular assay (Figure 1C source data)): 33.6%
- inhibition at 1 µM ([1]; HEK293, conc 1 μM, duplicates, read-out: inhibition rate, Hs-KMO cellular assay (Figure 1C source data)): 60.2%
- inhibition at 3 µM ([1]; HEK293, conc 3 μM, duplicates, read-out: inhibition rate, Hs-KMO cellular assay (Figure 1C source data)): 88.1%
- inhibition at 10 µM ([1]; HEK293, conc 10 μM, duplicates, read-out: inhibition rate, Hs-KMO cellular assay (Figure 1C source data)): 100%
- inhibition at 30 µM ([1]; HEK293, conc 30 μM, duplicates, read-out: inhibition rate, Hs-KMO cellular assay (Figure 1C source data)): 104%
- IC50 ([1]; HEK293 cells expressing human KMO, LC/MS, read-out: Human cell-based assay IC50): 0.58 µM
- inhibition rate, Hs-KMO cellular assay (Figure 1C source data) ([1]; conc 0.03 μM, duplicates): 1.868% and 10.412%
- inhibition rate, Hs-KMO cellular assay (Figure 1C source data) ([1]; conc 0.1 μM, duplicates): 14.953%
- inhibition rate, Hs-KMO cellular assay (Figure 1C source data) ([1]; conc 0.3 μM, duplicates): 36.860%
- inhibition rate, Hs-KMO cellular assay (Figure 1C source data) ([1]; conc 1 μM, duplicates): 55.900%
- inhibition rate, Hs-KMO cellular assay (Figure 1C source data) ([1]; conc 3 μM, duplicates): 85.656%
- inhibition rate, Hs-KMO cellular assay (Figure 1C source data) ([1]; conc 10 μM, duplicates): 99.963%
- inhibition rate, Hs-KMO cellular assay (Figure 1C source data) ([1]; conc 30 μM, duplicates): 103.556%
- inhibition at 0.03 µM ([2]; HEK293, conc 0.03 μM, duplicates, read-out: inhibition rate, Rat-KMO cellular assay (Figure 1D source data)): 4.96%
- inhibition at 0.1 µM ([2]; HEK293, conc 0.1 μM, duplicates, read-out: inhibition rate, Rat-KMO cellular assay (Figure 1D source data)): 0.969%
- inhibition at 0.3 µM ([2]; HEK293, conc 0.3 μM, duplicates, read-out: inhibition rate, Rat-KMO cellular assay (Figure 1D source data)): 4.27%
- inhibition at 3 µM ([2]; HEK293, conc 3 μM, duplicates, read-out: inhibition rate, Rat-KMO cellular assay (Figure 1D source data)): 20.1%
- inhibition at 10 µM ([2]; HEK293, conc 10 μM, duplicates, read-out: inhibition rate, Rat-KMO cellular assay (Figure 1D source data)): 58.4%
- inhibition at 30 µM ([2]; HEK293, conc 30 μM, duplicates, read-out: inhibition rate, Rat-KMO cellular assay (Figure 1D source data)): 87.7%
- IC50 ([2]; HEK293 cells expressing rat KMO, LC/MS): 7.3 µM
- inhibition rate, Rat-KMO cellular assay (Figure 1D source data) ([2]; conc 0.03 μM, duplicates): 3.155%
- inhibition rate, Rat-KMO cellular assay (Figure 1D source data) ([2]; conc 0.1 μM, duplicates): 1.853%
- inhibition rate, Rat-KMO cellular assay (Figure 1D source data) ([2]; conc 0.3 μM, duplicates): 6.904%
- inhibition rate, Rat-KMO cellular assay (Figure 1D source data) ([2]; conc 3 μM, duplicates): 21.339%
- inhibition rate, Rat-KMO cellular assay (Figure 1D source data) ([2]; conc 10 μM, duplicates): 59.197%
- inhibition rate, Rat-KMO cellular assay (Figure 1D source data) ([2]; conc 30 μM, duplicates): 87.499%
- IC50 (Rat KMO; cell-free enzyme assay, high kynurenine): 0.57 µM
- inhibition rate, Rat-KMO cell-free assay (Figure 1B source data) (Rat KMO; conc 0.03 μM, duplicates): 4.679% and 12.234%
- inhibition rate, Rat-KMO cell-free assay (Figure 1B source data) (Rat KMO; conc 0.1 μM, duplicates): 19.657%
- inhibition at 0.1 µM (Rat KMO; conc 0.1 μM, duplicates, read-out: inhibition rate, Rat-KMO cell-free assay (Figure 1B source data)): 16%
- inhibition rate, Rat-KMO cell-free assay (Figure 1B source data) (Rat KMO; conc 0.3 μM, duplicates): 35.882%
- inhibition at 0.3 µM (Rat KMO; conc 0.3 μM, duplicates, read-out: inhibition rate, Rat-KMO cell-free assay (Figure 1B source data)): 39.2%
- inhibition rate, Rat-KMO cell-free assay (Figure 1B source data) (Rat KMO; conc 1 μM, duplicates): 64.963%
- inhibition at 1 µM (Rat KMO; conc 1 μM, duplicates, read-out: inhibition rate, Rat-KMO cell-free assay (Figure 1B source data)): 63.5%
- inhibition rate, Rat-KMO cell-free assay (Figure 1B source data) (Rat KMO; conc 3 μM, duplicates): 78.325%
- inhibition at 3 µM (Rat KMO; conc 3 μM, duplicates, read-out: inhibition rate, Rat-KMO cell-free assay (Figure 1B source data)): 81.5%
- inhibition rate, Rat-KMO cell-free assay (Figure 1B source data) (Rat KMO; conc 10 μM, duplicates): 86.225%
- inhibition at 10 µM (Rat KMO; conc 10 μM, duplicates, read-out: inhibition rate, Rat-KMO cell-free assay (Figure 1B source data)): 85.2%
- inhibition rate, Rat-KMO cell-free assay (Figure 1B source data) (Rat KMO; conc 30 μM, duplicates): 94.681%
- inhibition at 30 µM (Rat KMO; conc 30 μM, duplicates, read-out: inhibition rate, Rat-KMO cell-free assay (Figure 1B source data)): 95.7%
- inhibition rate, Rat-KMO cell-free assay (Figure 1B source data) (Rat KMO; conc 100 μM, duplicates): 91.129%
- inhibition at 100 µM (Rat KMO; conc 100 μM, duplicates, read-out: inhibition rate, Rat-KMO cell-free assay (Figure 1B source data)): 88.8%
Structure (SMILES): Cc1cnn(-c2cccc(C(=O)O)c2)c1-c1ccccc1 [Compound 1]
